Experimental data as given in US9920035B2, “Heterocyclic compounds, medicaments containing said compounds, use thereof and processes for the preparation thereof” (Boehringer Ingelheim International GmbH, priority 2011, dated 2018).

Target: T1, epithelial sodium channel (ENaC) (Mus musculus, UniProt Q61180+Q9WU38+Q9WU39)
T1 construct: Mouse kidney M-1 cells were cultivated in DMEM containing 5% FCS and 5 μM dexamethasone; endogenous in cells; host or cells: mouse kidney M-1 cells
T1 sequence (Q61180 1-699): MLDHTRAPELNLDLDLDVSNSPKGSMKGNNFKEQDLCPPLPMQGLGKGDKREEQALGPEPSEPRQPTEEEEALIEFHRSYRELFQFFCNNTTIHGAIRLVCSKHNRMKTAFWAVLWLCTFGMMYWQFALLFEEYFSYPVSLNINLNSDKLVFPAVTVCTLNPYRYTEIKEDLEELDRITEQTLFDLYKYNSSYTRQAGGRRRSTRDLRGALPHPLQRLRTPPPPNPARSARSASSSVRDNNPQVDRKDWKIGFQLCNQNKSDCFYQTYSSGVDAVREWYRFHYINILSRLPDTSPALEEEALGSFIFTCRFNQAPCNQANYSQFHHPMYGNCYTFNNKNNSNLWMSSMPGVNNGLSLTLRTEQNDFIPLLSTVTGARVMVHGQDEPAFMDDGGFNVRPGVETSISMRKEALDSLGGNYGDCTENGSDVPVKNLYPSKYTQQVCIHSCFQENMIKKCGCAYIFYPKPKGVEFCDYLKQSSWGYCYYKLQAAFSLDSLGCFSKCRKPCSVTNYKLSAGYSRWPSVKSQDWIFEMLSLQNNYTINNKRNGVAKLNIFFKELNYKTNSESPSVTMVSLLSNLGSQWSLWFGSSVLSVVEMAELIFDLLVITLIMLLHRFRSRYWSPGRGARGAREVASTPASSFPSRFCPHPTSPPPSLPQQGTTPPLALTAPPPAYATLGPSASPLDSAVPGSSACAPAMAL
T1 sequence (Q9WU38 1-638): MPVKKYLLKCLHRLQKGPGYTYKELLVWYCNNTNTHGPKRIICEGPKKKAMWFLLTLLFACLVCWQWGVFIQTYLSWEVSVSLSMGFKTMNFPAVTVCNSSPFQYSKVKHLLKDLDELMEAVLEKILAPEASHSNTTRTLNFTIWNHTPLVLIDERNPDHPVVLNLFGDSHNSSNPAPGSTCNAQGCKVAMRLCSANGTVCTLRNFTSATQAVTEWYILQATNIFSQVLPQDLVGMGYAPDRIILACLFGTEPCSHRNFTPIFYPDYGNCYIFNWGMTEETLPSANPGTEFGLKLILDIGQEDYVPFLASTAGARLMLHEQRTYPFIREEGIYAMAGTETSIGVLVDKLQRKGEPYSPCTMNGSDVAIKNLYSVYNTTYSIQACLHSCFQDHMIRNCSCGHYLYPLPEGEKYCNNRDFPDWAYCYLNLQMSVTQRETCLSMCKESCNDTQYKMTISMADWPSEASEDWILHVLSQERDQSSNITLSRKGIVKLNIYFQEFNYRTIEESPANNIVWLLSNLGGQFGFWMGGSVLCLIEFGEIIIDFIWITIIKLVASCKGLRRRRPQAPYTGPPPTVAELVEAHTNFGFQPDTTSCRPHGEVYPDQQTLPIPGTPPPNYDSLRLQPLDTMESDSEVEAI
T1 sequence (Q9WU39 1-655): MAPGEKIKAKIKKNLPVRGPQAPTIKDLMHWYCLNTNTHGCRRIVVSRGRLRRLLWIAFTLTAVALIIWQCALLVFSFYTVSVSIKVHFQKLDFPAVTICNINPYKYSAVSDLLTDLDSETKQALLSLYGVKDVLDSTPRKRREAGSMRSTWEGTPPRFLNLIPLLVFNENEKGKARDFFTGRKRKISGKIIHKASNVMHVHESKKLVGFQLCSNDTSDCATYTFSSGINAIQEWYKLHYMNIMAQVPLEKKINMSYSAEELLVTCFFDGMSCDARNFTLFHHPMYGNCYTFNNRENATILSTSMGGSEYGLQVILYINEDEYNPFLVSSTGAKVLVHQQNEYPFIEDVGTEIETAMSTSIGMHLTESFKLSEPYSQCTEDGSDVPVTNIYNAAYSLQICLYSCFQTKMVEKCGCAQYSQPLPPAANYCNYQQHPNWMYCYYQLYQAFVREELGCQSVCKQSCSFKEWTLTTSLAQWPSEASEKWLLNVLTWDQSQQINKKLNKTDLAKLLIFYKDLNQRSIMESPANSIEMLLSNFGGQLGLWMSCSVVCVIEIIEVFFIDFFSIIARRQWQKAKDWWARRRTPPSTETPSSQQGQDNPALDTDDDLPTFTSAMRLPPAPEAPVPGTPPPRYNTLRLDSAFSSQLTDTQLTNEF
Experiment: Ussing chamber: inhibition of amiloride sensitive short circuit current (I_sc) in M-1 cells
Format: cell-based
Conditions: Mouse kidney M-1 cells on transwell filters, Ussing chamber at 37° C., compound added to the apical solution
Experimental: Mouse kidney M-1 cells were cultivated in DMEM containing 5% FCS and 5 μM dexamethasone for 10 to 12 days on polyester transwell filters. Filters were inserted into a teflon-coated well-plate which fit into the in-house ussing chamber system. Prior to measurement the medium of M-1 cells was replaced with Caco-2 transport buffer (Invitrogen, Germany). During measurements, the Ussing chamber temperature was kept at 37° C. Short circuit currents (I_sc) were measured in the voltage-clamp mode using an in-house built amplifier (Boehringer Ingelheim, Biberach) with the software package Lab View for data acquisition and analysis. The transepithelial electrical resistance (TEER) was determined by the application of voltage steps of ±5 mV every 5 sec. Compounds were administered at a final concentration of 3 μM or at increasing concentrations (1-3-10 μM) to the apical solution. At the end of each experiment the amiloride sensitive I_SC was measured by adding 3 μM amiloride to the apical compartment. Results are expressed as inhibition in percent of the amiloride effect or as IC50. Results are listed in tables 1 to 5 and further examples listed above.

NCCCNC(=O)N1CCC(CCc2ccccc2)(CNC(N)=NC(=O)c2nc(Cl)c(N)nc2N)CC1 [Example 2.6]
IC50: 28 nM

CC(C)(C)OC(=O)NCCCN1CCC(CNC(N)=NC(=O)c2nc(Cl)c(N)nc2N)(Cc2ccccc2)CC1 [Example 1.37]
IC50: 64 nM

CN(C)CCCNC(=O)N1CCC(CNC(N)=NC(=O)c2nc(Cl)c(N)nc2N)(Cc2ccccc2)CC1 [Example 1.38]
IC50: 42 nM

CN(C)CCNC(=O)N1CCC(CCc2ccccc2)(CNC(N)=NC(=O)c2nc(Cl)c(N)nc2N)CC1 [Example 1.10]
IC50: 36 nM

COC(=O)CN1CCC(CNC(N)=NC(=O)c2nc(Cl)c(N)nc2N)(Cc2ccccc2)CC1 [Example 1.30]
IC50: 70 nM

C[N+](C)(C)CCCNC(=O)N1CCC(CCc2ccccc2)(CNC(N)=NC(=O)c2nc(Cl)c(N)nc2N)CC1 [Example 5.1]
IC50: 27 nM

CN(C)CC(=O)N1CCC(CCc2ccccc2)(CNC(=N)NC(=O)c2nc(Cl)c(N)nc2N)CC1 [Example 1.48]
IC50: 130 nM

COC(=O)c1ccc(CCC2(CNC(N)=NC(=O)c3nc(Cl)c(N)nc3N)CCNCC2)cc1 [Example 2.1]
IC50: 394 nM

CC(C)NC(=O)N1CCC(CNC(N)=NC(=O)c2nc(Cl)c(N)nc2N)(c2ccccc2)CC1 [Example 1.43]
IC50: 41 nM

NCCC(=O)N1CCC(CNC(N)=NC(=O)c2nc(Cl)c(N)nc2N)(Cc2ccccc2)CC1 [Example 2.9]
IC50: 93 nM

CN(C)CCN1CCC(CCc2ccccc2)(CNC(N)=NC(=O)c2nc(Cl)c(N)nc2N)CC1 [Example 1.32]
IC50: 46 nM

CC(C)(C)OC(=O)N1CCC(CNC(N)=NC(=O)c2nc(Cl)c(N)nc2N)(c2ccccc2)CC1 [Example 1.42]
IC50: 25 nM

COc1ccccc1C1(CNC(N)=NC(=O)c2nc(Cl)c(N)nc2N)CCNCC1 [Example 2.10]
IC50: 200 nM

CC(C)(C)OC(=O)NCC(=O)N1CCC(CNC(N)=NC(=O)c2nc(Cl)c(N)nc2N)(Cc2ccccc2)CC1 [Example 1.24]
IC50: 27 nM

NCCNC(=O)N1CCC(CNC(N)=NC(=O)c2nc(Cl)c(N)nc2N)(Cc2ccccc2)CC1 [Example 2.12]
IC50: 17 nM

N=C(N)NCCCCC(=O)N1CCC(CCc2ccccc2)(CNC(N)=NC(=O)c2nc(Cl)c(N)nc2N)CC1 [Example 4.2]
IC50: 18 nM

CS(=O)(=O)N1CCC(CCc2ccccc2)(CNC(N)=NC(=O)c2nc(Cl)c(N)nc2N)CC1 [Example 1.1]
IC50: 34 nM

CC(C)(C)OC(=O)NCCCCC(=O)N1CCC(CNC(N)=NC(=O)c2nc(Cl)c(N)nc2N)(Cc2ccccc2)CC1 [Example 1.26]
IC50: 19 nM

CN(C)CCCN1CCC(CNC(N)=NC(=O)c2nc(Cl)c(N)nc2N)(Cc2ccccc2)CC1 [Example 1.31]
IC50: 287 nM

NCCCCC(=O)N1CCC(CCc2ccccc2)(CNC(N)=NC(=O)c2nc(Cl)c(N)nc2N)CC1 [Example 2.3]
IC50: 23 nM

CCCC(=O)N1CCC(CCc2ccccc2)(CNC(N)=NC(=O)c2nc(Cl)c(N)nc2N)CC1 [Example 1.13]
IC50: 13 nM

NC(=NC(=O)c1nc(Cl)c(N)nc1N)NCC1(CCc2ccccc2)CCN(Cc2ccccc2)CC1 [Example 1.6]
IC50: 40 nM

COc1ccccc1C1(CNC(N)=NC(=O)c2nc(Cl)c(N)nc2N)CCN(C(=O)OC(C)(C)C)CC1 [Example 1.45]
IC50: 66 nM

CC(C)(C)OC(=O)NCCCNC(=O)N1CCC(CNC(N)=NC(=O)c2nc(Cl)c(N)nc2N)(Cc2ccccc2)CC1 [Example 1.36]
IC50: 18 nM

NCCC(=O)N1CCC(CCc2ccccc2)(CNC(N)=NC(=O)c2nc(Cl)c(N)nc2N)CC1 [Example 2.2]
IC50: 19 nM

CN(C)CCCN1CCC(CCc2ccccc2)(CNC(N)=NC(=O)c2nc(Cl)c(N)nc2N)CC1 [Example 1.29]
IC50: 86 nM

CCNC(=O)N1CCC(CCc2ccccc2)(CN/C(N)=N/C(=O)c2nc(Cl)c(N)nc2N)CC1 [Example 1.12]
IC50: 12 nM

NCCCN1CCC(CCc2ccccc2)(CNC(N)=NC(=O)c2nc(Cl)c(N)nc2N)CC1 [Example 2.5]
IC50: 65 nM

NC(=O)N1CCC(CCc2ccccc2)(CNC(N)=NC(=O)c2nc(Cl)c(N)nc2N)CC1 [Example 1.4]
IC50: 27 nM

CC(C)(C)OC(=O)NCCNC(=O)N1CCC(CCc2ccccc2)(CNC(N)=NC(=O)c2nc(Cl)c(N)nc2N)CC1 [Example 1.33]
IC50: 7 nM

CN(C)CCN1CCC(CNC(N)=NC(=O)c2nc(Cl)c(N)nc2N)(Cc2ccccc2)CC1 [Example 1.41]
IC50: 91 nM

NC(=NC(=O)c1nc(Cl)c(N)nc1N)NCC1(CCc2ccccc2)CCN(C(=O)c2ccccc2)CC1 [Example 1.5]
IC50: 34 nM

COCC(=O)N1CCC(CCc2ccccc2)(CNC(N)=NC(=O)c2nc(Cl)c(N)nc2N)CC1 [Example 1.9]
IC50: 11 nM

NC(=NC(=O)c1nc(Cl)c(N)nc1N)NCC1(CCc2ccccc2)CCN(C(=O)NCC(=O)O)CC1 [Example 3.3]
IC50: 10.1 nM

C[N+](C)(C)CC(=O)N1CCC(CCc2ccccc2)(CNC(N)=NC(=O)c2nc(Cl)c(N)nc2N)CC1 [Example 1.49]
IC50: 22 nM

COC(=O)CCC(=O)N1CCC(CNC(N)=NC(=O)c2nc(Cl)c(N)nc2N)(c2ccccc2)CC1 [Example 1.47]
IC50: 29 nM

CC(C)CC(=O)N1CCC(CCc2ccccc2)(CNC(N)=NC(=O)c2nc(Cl)c(N)nc2N)CC1 [Example 1.11]
IC50: 17 nM

CC(C)NC(=O)N1CCC(CNC(N)=NC(=O)c2nc(Cl)c(N)nc2N)(Cc2ccccc2)CC1 [Example 1.8]
IC50: 17 nM

NC(=NC(=O)c1nc(Cl)c(N)nc1N)NCC1(CCc2ccccc2)CCN(C(=O)NCCC(=O)O)CC1 [Example 3.2]
IC50: 149 nM

CN1CCC(CCc2ccccc2)(CNC(N)=NC(=O)c2nc(Cl)c(N)nc2N)CC1 [Example 1.3]
IC50: 33 nM

NC(=NC(=O)c1nc(Cl)c(N)nc1N)NCC1(CCc2ccccc2)CCN(C(=O)CCC(=O)O)CC1 [Example 3.1]
IC50: 40 nM

C[N+]1(C)CCC(CCc2ccccc2)(CNC(N)=NC(=O)c2nc(Cl)c(N)nc2N)CC1 [Example 1.15]
IC50: 91 nM

NC(=NC(=O)c1nc(Cl)c(N)nc1N)NCC1(Cc2ccccc2)CCNCC1 [Example 2.11]
IC50: 55 nM

NCCCN1CCC(CNC(N)=NC(=O)c2nc(Cl)c(N)nc2N)(Cc2ccccc2)CC1 [Example 2.14]
IC50: 120 nM

CC(C)(C)OC(=O)NCCCNC(=O)N1CCC(CCc2ccccc2)(CNC(N)=NC(=O)c2nc(Cl)c(N)nc2N)CC1 [Example 1.34]
IC50: 10 nM

COC(=O)CNC(=O)N1CCC(CCc2ccccc2)(CNC(N)=NC(=O)c2nc(Cl)c(N)nc2N)CC1 [Example 1.18]
IC50: 28 nM
